Measured values published in patent publication US20260232590A1, “LIPID NANOPARTICLES FOR THE TREATMENT OF OCULAR DISEASES” (UNIVERSITAT DE BARCELONA, priority 2023, published 2026).

Assays:
[1] = concentration of 0.5%; cited from earlier work
[2] = tested on: chorioallantoic membrane of a fertilized chicken egg; assay: In vitro ocular tolerance HET-CAM test; settings: 300 μL, first 5 min
Description: In vitro ocular tolerance was assessed using the HET-CAM test to ensure that the formulations of Loaded Lipid Nanoparticles were non-irritating when administered as eye-drops. Irritation, coagulation, and haemorrhage phenomena were measured by applying 300 μL of the formulation studied on chorioallantoic membrane of a fertilized chicken egg and monitoring it during the first 5 min after the application. This assay was conducted according to the guidelines of ICCVAM (The Interagency Coordinating Committee on the Validation of Alternative Methods). The development of the test was carried out using 3 eggs for each group (free APG, Loaded Lipid Nanoparticles, positive control (NaOH 0.1 M) and negative control (0.9% NaCl)). The ocular irritation index (OII) was calculated by the sum of the scores of each injury according to the following expression (Eq 3):
[formula] • where H, V and C are times (s) until the start of haemorrhage (H), vasoconstriction (V) and coagulation (C), respectively. The formulations were classified according to the following: OII≤0.9 non-irritating; 0.9<OII≤4.9 weakly irritating; 4.9<OII≤8.9 moderately irritating; 8.9<OII≤21 irritating.

[3] = tested on: HCE-2 cells; assay: MTT cell viability in corneal cells; format: cell-based, human; settings: 5- and 15-minutes incubation
Description: (§1) Human corneal epithelial cells (HCE-2) (LGC Standards, Barcelona, Spain) were cultured in keratinocyte serum-free growth medium (SFM; Life Technologies, Invitrogen, GIBCO®, Paisley, UK)). It was supplemented with bovine pituitary extract 0.05 mg·mL^−1 and epidermal growth factor 5 ng·mL^−1 containing insulin 0.005 mg·mL^−1 and penicillin 100 U·mL^−1 plus streptomycin […]. Cells were grown on a culture flask to 80% confluency in a humidified 10% CO2 atmosphere at 37° C. Human UM 92-1 cells were maintained in RPMI-1640 medium, added with 10% fetal bovine serum (FBS), 2 mM L-glutamine, 100 units/mL penicillin and […] streptomycin. For MTT assay, passages from 10 to 13 were used. All the cells were incubated at 37° C. and 10% CO2 [28].
(§2) Cytotoxicity of Loaded Lipid Nanoparticles and Lipid Nanoparticles was determined by MTT (3-(4,5-Dimethylthiazol-2-yl)-2,5-diphenyl tetrazolium bromide) assay, by reduction of tetrazolium salt by intracellular dehydrogenases of viable living cells. […] Cell viability was then measured at wavelength of 560 nm in a Modulus® Microplate Photometer (Turner BioSystems Inc., Sunnyvale, CA, USA). Results were expressed as percentage of cell survival relative to untreated cells.
The cytotoxicity of several concentrations of free APG, Loaded Lipid Nanoparticles, and the Lipid Nanoparticles (without APG) were evaluated on HCE-2 cells. […]

[4] = tested on: ocular inflammation induced by sodium arachidonate; assay: In vivo anti-inflammatory treatment study (sodium arachidonate); parameters: species or system New Zealand male albino rabbits; settings: applied 30 min after SA
Description: In vivo anti-inflammatory effectiveness was carried out throughout the evaluation test for the inflammation prevention ability and the anti-inflammatory efficacy. Assays were carried out using New Zealand male albino rabbits (n=3/group), described previously. The activity of Loaded Lipid Nanoparticles in comparison with free APG, Lipid Nanoparticles, and NaCl 0.9% (control group) was measured. The inflammation prevention study consisted of the ocular application of 50 μL of each formulation. After 30 min of exposure, an inflammatory stimulus, 50 μL of 0.5% sodium arachidonate (SA) dissolved in PBS, was instilled in the right eye and the left eye was used as a control. In the anti-inflammatory treatment study, the inflammatory stimulus was applied 30 min before than the application of each formulation tested. The evaluation of prevention and treatment of each formulation were carried out from the first application up to 210 min, according to the Draize modified test scoring system.

[5] = tested on: New Zealand male albino rabbits; assay: In vivo primary eye irritation test of Draize; parameters: species or system rabbit
Description: All of the procedures were approved by the Ethical Committee for Animal Experimentation of the UB and current legislation (Decree 214/97, Gencat). The formulations were evaluated using primary eye irritation test of Draize to ensure the results obtained from the […] test. For this experiment, New Zealand male albino rabbits (2.0-2.5 kg, San Bernardo farm, Navarra, Spain) were used. 50 μL of each sample were instilled in the ocular conjunctival sac (n=3/group) and a mild massage was applied to guarantee the passage of the sample through the eyeball. […] The opposite untreated eye was used as a negative control. Draize test score was determined directly by observing the anterior segment of the eye and changes in the structures of the cornea (turbidity or opacity), iris and conjunctiva (congestion, chemosis, swelling and secretion).

[6] = In vitro APG release, Franz-type diffusion cells; format: in vitro ADME
Description: The in vitro APG release test for Loaded Lipid Nanoparticles was performed using Franz-type diffusion cells (Crown Glass, NY, USA) with a diffusion area of 0.20 cm^2 and dialysis membranes of cellulose (MWCO 12 kDa). A solution of PBS with 5% polysorbate 80 and 20% ethanol under continuous stirring was used as a receptor medium assuring sink conditions (ability of the medium to dissolve the expected amount of drug). The formulations were compared with free-APG solution. The assay was carried out at 32±0.5° C. along 48 h. 300 μL of each formulation were added to the donor compartment by direct contact with the membrane. At a certain timepoints, 150 μL of sample were collected with a syringe and the volume withdrawn was replaced with receptor solution. Drug content of the samples was analysed with HPLC. The test was performed by triplicate, and the cumulative amount of APG was calculated.

[7] = tested on: chorioallantoic membrane of a fertilized chicken egg; assay: Trypan blue staining (TBS) of the CAM; settings: after HET-CAM
Description: Furthermore, at the end of the HET-CAM experiment, in order to quantify the damage of the membrane, trypan blue staining (TBS) was applied. The CAM was treated with 1000 μL of 0.1% trypan blue solution for 1 min. Excess dye was rinsed off with distilled water. The dyed CAM was excised and extracted with 5 mL formamide, and the absorbance of the extract was measured spectrophotometrically at 595 nm. The absorbed trypan blue was determined from a calibration curve of trypan blue in formamide.

[8] = tested on: dry eye induced by 0.1% benzalkonium chloride; assay: Dry eye disease model, fluorescein staining of the ocular surface; format: in vivo, New Zealand white rabbits; settings: twice-daily topical, one week
Description: In order to evaluate the potential to treat dry eye of Loaded Lipid Nanoparticles, Schirmer test, fluorescein and Bengal rose assessments were performed against Lipid Nanoparticles, free APG and 0.15% hyaluronic acid (commercial solution Hyabak®). Twelve male New Zealand white rabbits (purchased from Livestock Research Institute, Council of Agriculture, Executive Yuan, Taiwan) weighing between 2.0 and 2.5 kg were used for the study. The rabbits were randomly divided into 4 groups: Lipid Nanoparticles, Loaded Lipid Nanoparticles, free APG solution and 0.15% hyaluronic acid (commercial solution (Hyabak®). All rabbits were housed at a room temperature of 23±2° C. with relative humidity 75±10% and alternating 12-hour light-dark cycles (8 a.m. to 8 p.m.). Both eyes of each rabbit were treated twice-daily by a topical administration of 0.1% benzalkonium chloride (BAC) drops for 2 weeks. On day 14, DES was confirmed by Schirmer test, fluorescein and Bengal rose staining. The treatment began after the confirmation of DES, where on eye of each rabbit was chosen randomly for twice-daily topical administration of Lipid Nanoparticles, Loaded Lipid Nanoparticles, free APG solution and a commercial solution. After one week of treatment, Schirmer test, fluorescein and Bengal rose staining were performed. Fluorescein staining is an effective method for ocular surface evaluation. […]

[9] = tested on: dry eye induced by 0.1% benzalkonium chloride; assay: Dry eye disease model, Schirmer test (aqueous tear production); format: in vivo, New Zealand white rabbits; settings: twice-daily topical, one week
Description: In order to evaluate the potential to treat dry eye of Loaded Lipid Nanoparticles, Schirmer test, fluorescein and Bengal rose assessments were performed against Lipid Nanoparticles, free APG and 0.15% hyaluronic acid (commercial solution Hyabak®). Twelve male New Zealand white rabbits (purchased from Livestock Research Institute, Council of Agriculture, Executive Yuan, Taiwan) weighing between 2.0 and 2.5 kg were used for the study. The rabbits were randomly divided into 4 groups: Lipid Nanoparticles, Loaded Lipid Nanoparticles, free APG solution and 0.15% hyaluronic acid (commercial solution (Hyabak®). All rabbits were housed at a room temperature of 23±2° C. with relative humidity 75±10% and alternating 12-hour light-dark cycles (8 a.m. to 8 p.m.). Both eyes of each rabbit were treated twice-daily by a topical administration of 0.1% benzalkonium chloride (BAC) drops for 2 weeks. On day 14, DES was confirmed by Schirmer test, fluorescein and Bengal rose staining. The treatment began after the confirmation of DES, where on eye of each rabbit was chosen randomly for twice-daily topical administration of Lipid Nanoparticles, Loaded Lipid Nanoparticles, free APG solution and a commercial solution. […] Tear production was measured using Schirmer test strips. […] After 5 min, the wetted length (mm) of the paper strips was recorded.

[10] = tested on: CAM of embryonated eggs; assay: Antiangiogenic activity, modified CAM test; parameters: species or system chicken; settings: 40 μL, 48 h
Description: To determine the antiangiogenic effects of Loaded Lipid Nanoparticles, a modified choriolantoic membrane (CAM) test was used. It was carried out using fertilised chicken eggs incubated at 37° C. and 85% humidity from the farm […] (Tarragona, Spain). A lateral window was opened on the eggshell on the 3rd day of incubation and after 24 h of stabilization, 40 μL of the sample were inoculated to the CAM. Afterwards the membrane was sealed and incubated for 48 h. The controls of the experiments were NaCl as a normal angiogenic development, and basic fibroblast growth factor (bFGF) as a pro-angiogenic control (20 μL at 10 ng·mL^-1). Once CAM were evaluated, membranes were fixed by adding 4% paraformaldehyde overnight at 4° C. Next, membranes were extracted and observed using a binocular loupe. Afterwards, the obtained images were processed and the density of the vessels in the CAM was automatically measured using ImageJ vessel analysis plugin [34].

[11] = tested on: UM 92.1 cancer cells; assay: MTT cytotoxic capacity in ocular tumoral cells; format: cell-based, human; settings: 0.005-0.05 mg/mL, 24 h
Description: as §1
as §2, with “untreated cells. […]” for “untreated cells.”

## CCCCCCCCCCCCCCCCCC[N+](C)(C)CCCCCCCCCCCCCCCCCC.[Br-] [DDAB, dimethyldioctadecylammonium bromide]
[1]
  toxicity in ocular delivery: had not shown any toxicity

## [Na+].[OH-] [NaOH]
[2]
  HET-CAM irritation classification: severe irritant

## O=c1cc(-c2ccc(O)cc2)oc2cc(O)cc(O)c12 [free APG, Apigenin]
[3]
  cell viability: ≥ 80%
[3]; all the tested concentrations
  cell viability / toxicity: did not show toxicity
[4]
  inflammation treatment effect: able to treat fast the inflammation
[5]; 50 μL in conjunctival sac
  Draize test irritancy in vivo: non-irritant
[5]; in vivo
  discomfort after instillation: caused an initial discomfort
[6]; 48 h
  in vitro release profile: faster release
[6]; at 24 h, 32° C., PBS with 5% polysorbate 80 and 20% ethanol
  APG released: 100%
[7]
  TBS quantitative result (irritancy): irritant
[8]
  fluorescein staining score, corneal surface: worse punctuation in the staining
[9]
  tear flow (Schirmer test) versus dry eye group: did not improve the tear flow
[10]
  vascular density versus negative control (NaCl): not significant
[11]
  cytotoxicity against cancer cells: significant toxicity
